Tests used:
[1] = system: wheat (Triticum aestivum, variety "TRISO"); assay: Root growth assay, seed treatment, wheat; type: in vivo; design: key to Root Growth (Root Growth of "100" is set as the standard): relative root growth; 100 = standard (untreated control); conditions: for Root Growth (Root Growth of "100" is set as the standard): wet root weight 16 (±2) days post treatment; for effect as plant growth regulator in wheat: result in words, at various/different concentrations
From the text: (§1) Plant roots are a highly proliferative tissue that allows an easy accessible, cheap and short term screening method for plant growth regulators. The results obtained can easily be transferred to the overall effects on a plant of plant growth regulators identified by such a system. By using this root assay one is enabled to determine the effect of a seed treatment to root growth and/or germination and/or changes in habitat of germinated plants in order to identify the possible use as a yield enhancer. Two seeds of wheat (Triticum aestivum, variety “TRISO”) or 1 seed of maize (Zea mays, variety “LORENZO”) per hole in a plastic tray which contains an architecture of 8×13 holes were placed on compost soil covered with sand. These seeds were treated with 100 μl/hole, which creates an application volume of approx. 1200 l/ha, of a compound solution at active ingredient rates equivalent to 100, 10 and 1 g a.i./ha of each compound using an robotic application system (Lizzy Spray Robotics). Six replicates in a row of each compound and concentration were done. The outer rim of the above defined plastic tray was untreated to avoid false negative effects and the middle row (No. 7) was used as untreated control. The treated seeds were allowed to dry for approx. 4 hours and subsequently covered with sand and watered. The trays were stored in climate chambers with 14 hours lighting at a temperature of 24° C. (±2) at daytime and 16° C. (±2) at night and relative humidity (rH) of 60% and daily watered. Assessments were done 16 (±2) days post treatment by counting the germinated plants and assessing the phytotoxicity symptoms and percentage. In addition, the roots were washed out and the shoots were cut directly above the seed and the wet roots were placed on dry paper towels for approximately 30 minutes and weighted afterwards. This procedure provides a similar grade of moisture to the roots so that a comparison of the weights is possible.
(§2) The effects observed concerning Root Growth given in column 2 (Root Growth of “100” is set as the standard) are directed to concentrations that are equivalent to 100, 10, 1 g a.i./ha, each.

[2] = system: maize (Zea mays, variety "LORENZO"); assay: Root growth assay, seed treatment, maize; type: in vivo; conditions: for Root Growth (Root Growth of "100" is set as the standard): wet root weight 16 (±2) days post treatment; for effect as plant growth regulator in maize: result in words
From the text: as §1, §2

melting point [°C] | Compound | Root Growth (Root Growth of "100" is set as the standard) ([1]; 1 g a.i./ha) | Root Growth (Root Growth of "100" is set as the standard) ([1]; 10 g a.i./ha) | Root Growth (Root Growth of "100" is set as the standard) ([1]; 100 g a.i./ha) | effect as plant growth regulator in wheat [1] | Root Growth (Root Growth of "100" is set as the standard) ([2]; 1 g a.i./ha) | Root Growth (Root Growth of "100" is set as the standard) ([2]; 10 g a.i./ha) | Root Growth (Root Growth of "100" is set as the standard) ([2]; 100 g a.i./ha) | effect as plant growth regulator in maize [2]
 | Nc1nc(Nc2ccccc2)sc1C(=O)c1ccc(OC(F)F)cc1 [Compound 1.53] | 125 | 107 | 101 | superior effects | 91 | 85 | 108 | superior effects
 | Nc1nc(Nc2cccc(C(F)(F)F)c2)sc1C(=O)c1ccc(OC(F)F)cc1 [Compound 1.58] | 123 | 112 | 103 | superior effects | 91 | 107 | 105 | superior effects
143 | Nc1nc(Nc2cccnc2)sc1C(=O)c1ccc(OC(F)F)cc1 [Compound 1.60, [4-Amino-2-(pyridin-3-yl-amino)-thiazol-5-yl]-(4-difluoromethoxyphenyl)-methanone] | 98 | 57 | 54 |  | 191 | 105 | 109 | superior effect
 | Nc1nc(Nc2ccccc2)sc1C(=O)c1cccs1 [Compound 1.79] | 88 | 88 | 73 |  | 108 | 116 | 105 | superior effect
 | Nc1nc(Nc2ccccc2)sc1C(=O)c1cccnc1 [Compound 1.105] | 72 | 99 | 123 | superior effect |  |  |  | 
 | COc1ccc(Nc2nc(N)c(C(=O)c3cccnc3)s2)cc1 [Compound 1.106] | 145 | 99 | 90 | superior effect |  |  |  | 
 | N#Cc1ccc(Nc2nc(N)c(C(=O)c3cccnc3)s2)cc1 [Compound 1.108] | 78 | 95 | 131 | superior effect |  |  |  | 
 | CSc1ccc(Nc2nc(N)c(C(=O)c3cccnc3)s2)cc1 [Compound 1.117] | 111 | 126 | 125 |  |  |  |  | 
 | Nc1nc(Nc2ccc(OC(F)(F)F)cc2)sc1C(=O)c1cccnc1 [Compound 1.118] | 95 | 122 | 113 |  |  |  |  | 
 | Nc1nc(NCC2CCCCC2)sc1C(=O)C(Cc1ccccc1)NC(=O)OCc1ccccc1 (stereo not shown) [Compound 1.139] | 130 | 66 | 120 |  |  |  |  | 
